Where two headings read alike, the source gives them in different places.
Legend:
SARS-CoV-2 M^pro = SARS-CoV-2 M^pro (Severe acute respiratory syndrome coronavirus 2, UniProt P0DTD1); experiment: biochemical; assay type: biochemical; conditions: for IC50: 150 nM enzyme, 30 min pre-incubation at 37°C
Cathepsin B = biological target: T1, Cathepsin B (Homo sapiens, UniProt P07858); experiment: Selectivity assay, Cathepsin B inhibitor screening kit; assay type: biochemical
T1 construct: purchased BioVision K147-100
Procedure: (§1) The biochemical activity against several common human cysteine proteases was assessed using Cathepsin B inhibitor screening kit (BioVision, K147-100), Cathepsin L inhibitor screening kit (BioVision, K161-100), and Caspase 2 inhibitor drug screening kit (BioVision, K152-100) following the manufacturer’s instructions.

Cathepsin L = biological target: T2, Cathepsin L (Homo sapiens, UniProt P07711); experiment: Selectivity assay, Cathepsin L inhibitor screening kit; assay type: biochemical
T2 construct: purchased BioVision K161-100
T2 sequence (P07711 114-333): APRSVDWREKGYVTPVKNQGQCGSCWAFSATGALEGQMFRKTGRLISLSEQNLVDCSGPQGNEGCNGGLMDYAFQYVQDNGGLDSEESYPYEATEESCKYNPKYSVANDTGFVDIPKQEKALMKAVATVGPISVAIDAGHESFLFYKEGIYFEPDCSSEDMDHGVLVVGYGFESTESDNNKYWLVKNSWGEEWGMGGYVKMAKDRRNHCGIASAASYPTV
Procedure: as §1

Caspase 2 = biological target: T3, Caspase 2 (Homo sapiens, UniProt P42575); experiment: Selectivity assay, Caspase 2 inhibitor drug screening kit; assay type: biochemical
T3 construct: purchased BioVision K152-100
T3 sequence (P42575 348-452): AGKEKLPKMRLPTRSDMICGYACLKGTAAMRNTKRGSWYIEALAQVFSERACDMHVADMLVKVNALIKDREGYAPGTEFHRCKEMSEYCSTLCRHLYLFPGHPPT
T3 sequence (P42575 170-325): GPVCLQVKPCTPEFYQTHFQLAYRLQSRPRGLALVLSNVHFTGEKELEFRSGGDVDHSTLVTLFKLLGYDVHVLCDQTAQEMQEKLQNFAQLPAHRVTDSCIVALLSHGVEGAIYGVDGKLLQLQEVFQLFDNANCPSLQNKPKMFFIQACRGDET
Procedure: as §1

WT SARS-CoV-2 HKU-001a = assay type: cell-based
SARS-CoV-2 B.1.1.7/Alpha = experiment: Viral load reduction assay in VeroE6-TMPRSS2 cells, Alpha; assay type: cell-based
[1] = system: SARS-CoV-2 B.1.617.2/Delta; experiment: Viral load reduction assay in VeroE6-TMPRSS2 cells, Delta; assay type: cell-based
SARS-CoV-2 XBB.1.5 = experiment: Viral load reduction assay in VeroE6-TMPRSS2 cells, XBB.1.5; assay type: cell-based
[2] = system: SARS-CoV-2 Omicron BA.5.2; experiment: Viral load reduction assay in VeroE6-TMPRSS2 cells, BA.5.2; assay type: cell-based
SARS-CoV-2 EG.5.1 = experiment: Viral load reduction assay in VeroE6-TMPRSS2 cells, EG.5.1; assay type: cell-based
SARS-CoV-2 JN.1.1 = experiment: Viral load reduction assay in VeroE6-TMPRSS2 cells, JN.1.1; assay type: cell-based
SARS-CoV-2 [3] = experiment: Antiviral activity in human lung Calu-3 cells; assay type: cell-based; conditions: Severe acute respiratory syndrome coronavirus 2
SARS-CoV-2 [4] = experiment: In vivo antiviral evaluation in the golden Syrian hamster model
[5] = system: SARS-CoV-2 Alpha strain (B.1.1.7); assay type: in vivo, K18-hACE2 mice
VeroE6-TMPRSS2 cells = conditions: 48 h, CellTiter-Glo
Procedure: (B) Cytotoxicity of H135 in VeroE6-TMPRSS2 cells was measured by CellTiter-Glo assay for 48 h.

[6] = 300 mg/kg/day for three days, body weight recorded 14 days, no virus infection

With CC(C)(C)[C@H](NC(=O)N1CC2(COC2)C1)C(=O)N1C[C@H](OC(F)F)C[C@H]1C(=O)N[C@H](C#N)C[C@@H]1CCNC1=O [H129] as the compound, how does the IC50 (SARS-CoV-2 M^pro; mean ± SEM) read?
Its IC50 is 0.924 µM.

For N#C[C@H](C[C@@H]1CCNC1=O)NC(=O)[C@@H]1C[C@@H](OC(F)(F)F)CN1C(=O)[C@@H](NC(=O)C1(F)CC1)C1CCCCC1 [H135], which IC50 (SARS-CoV-2 M^pro; mean ± SEM) is on record?
Its IC50 is 0.0127 ± 0.0001 µM.

And the Ki (SARS-CoV-2 M^pro; read-out: inhibitory constant (Ki))?
The Ki was 0.156 µM.

What about the “SARS-CoV-2 M^pro inhibitory potency enhanced” value (SARS-CoV-2 M^pro; relative to hit compound H109) of the same compound?
Its value is 32 folds.

And the IC50 (Cathepsin B)?
The IC50 was > 100 µM.

And the IC50 (Cathepsin L)?
The IC50 was > 100 µM.

And the IC50 (Caspase 2)?
Its IC50 is > 100 µM.

What about the “decrease of viral yield in cell culture supernatant” value (“decrease of viral yield” for short) (WT SARS-CoV-2 HKU-001a) of the same compound?
The value was ~ 7 log10.

What about the “decrease of viral yield” value (SARS-CoV-2 B.1.1.7/Alpha) of the same compound?
The value was “more than 5 log10”.

What about the “decrease of viral yield” value [1] of the same compound?
Its value is “more than 5 log10”.

And the “decrease of viral yield” value (SARS-CoV-2 XBB.1.5)?
The value was “more than 5 log10”.

What about the “decrease of viral yield” value [2] of the same compound?
Its value is “more than 5 log10”.

And the “decrease of viral yield” value (SARS-CoV-2 EG.5.1)?
The value was “more than 5 log10”.

What about the “decrease of viral yield” value (SARS-CoV-2 JN.1.1) of the same compound?
Its value is “more than 5 log10”.

What about the EC50 (SARS-CoV-2 [3]) of the same compound?
The EC50 was 0.122 ± 0.013 µM.

And the “decrease of viral RNA copies in lung” value (SARS-CoV-2 [4]; hamster, in vivo)?
Its value is ~ 0.7 log.

And the “decrease of viral RNA copies in trachea” value (SARS-CoV-2 [4]; hamster, in vivo)?
The value was ~ 0.65 log.

What about the “live virus titer in hamster lungs” value (SARS-CoV-2 [4]; hamster, in vivo) of the same compound?
Its value is “significantly reduced”.

And the “body weight of infected mice” value ([5]; mouse, in vivo)?
The value was “less body weight loss”.

And the delayed death ([5]; mouse, in vivo)?
Its delayed death is 0.6 day/mouse.

And the fatality rate ([5]; mouse, in vivo)?
Its fatality rate is 100%.

And the “reduction of SARS-CoV-2 live virus titers in mouse lung” value ([5]; mouse, in vivo)?
The value was “more than 2 logs10”.

And the “dose up to which no cytotoxicity was found” value (VeroE6-TMPRSS2 cells)?
The value was ≥ 400 µM.

What about the “toxicity as reflected by animal body weight change” value [6] of the same compound?
Its value is “Negligible toxicity”.

For CC(C)(C)OC(=O)N[C@H](C(=O)N1C[C@H](OC(F)F)C[C@H]1C(=O)N[C@H](C#N)C[C@@H]1CCNC1=O)C(C)(C)C [H117], which IC50 (SARS-CoV-2 M^pro; mean ± SEM) is on record?
Its IC50 is 0.151 ± 0.0052 µM.

Which IC50 (SARS-CoV-2 M^pro; mean ± SEM) does the source give for CC(C)(C)OC(=O)N[C@H](C(=O)N1C[C@H](OC(F)F)C[C@H]1C(=O)N[C@H](C#N)C[C@@H]1CCNC1=O)C1CCCC1 [H131] here?
The IC50 was 0.0792 ± 0.0021 µM.

For CC(C)(C)[C@H](NC(=O)C(F)(F)F)C(=O)N1C[C@H](OC(F)F)C[C@H]1C(=O)N[C@H](C#N)C[C@@H]1CCNC1=O [H122], which IC50 (SARS-CoV-2 M^pro; mean ± SEM) is on record?
The IC50 was 0.106 ± 0.0028 µM.

With CC(C)(C)[C@H](NC(=O)C1CCC(F)(F)CC1)C(=O)N1C[C@H](OC(F)F)C[C@H]1C(=O)N[C@H](C#N)C[C@@H]1CCNC1=O [H123] as the compound, how does the IC50 (SARS-CoV-2 M^pro; mean ± SEM) read?
The IC50 was 0.8609 ± 0.0051 µM.

With CC(C)(C)OC(=O)N1C[C@H](OC(F)F)C[C@@H]1C(=O)N1C[C@H](OC(F)F)C[C@H]1C(=O)N[C@H](C#N)C[C@@H]1CCNC1=O [H141] as the compound, how does the IC50 (SARS-CoV-2 M^pro) read?
The IC50 was > 25 µM.

For CC(C)(C)[C@H](NC(=O)C1(F)CC1)C(=O)N1C[C@H](OC(F)F)C[C@H]1C(=O)N[C@H](C#N)C[C@@H]1CCNC1=O [H124], which IC50 (SARS-CoV-2 M^pro; mean ± SEM) is on record?
The IC50 was 0.102 ± 0.002 µM.

With CC(C)(C)OC(=O)N[C@H](C(=O)N[C@@H](Cc1ccccc1)C(=O)N[C@H](C#N)C[C@@H]1CCNC1=O)C(C)(C)C [H109] as the compound, how does the IC50 (SARS-CoV-2 M^pro; mean ± SEM) read?
Its IC50 is 0.407 ± 0.0056 µM.

With CC(C)(C)OC(=O)N[C@H](C(=O)N1C[C@H](OC(F)F)C[C@H]1C(=O)N[C@H](C#N)C[C@@H]1CCNC1=O)C1CCCCC1 [H130] as the compound, how does the IC50 (SARS-CoV-2 M^pro; mean ± SEM) read?
Its IC50 is 0.0701 ± 0.0028 µM.

Which IC50 (SARS-CoV-2 M^pro) does the source give for CC(C)(C)OC(=O)N[C@H](C(=O)N1C[C@H](OCc2ccccc2)C[C@H]1C(=O)N[C@H](C#N)C[C@@H]1CCNC1=O)C(C)(C)C [H139] here?
The IC50 was 3.41 µM.

Which IC50 (SARS-CoV-2 M^pro; mean ± SEM) does the source give for CC(C)(C)OC(=O)N[C@H](C(=O)N1C[C@H](OC(C)(C)C)C[C@H]1C(=O)N[C@H](C#N)C[C@@H]1CCNC1=O)C(C)(C)C [H118] here?
Its IC50 is 0.31 ± 0.0189 µM.

With CC(C)(C)OC(=O)N[C@H](C(=O)N1C[C@H](OC(F)(F)F)C[C@H]1C(=O)N[C@H](C#N)C[C@@H]1CCNC1=O)C(C)(C)C [H121] as the compound, how does the IC50 (SARS-CoV-2 M^pro; mean ± SEM) read?
Its IC50 is 0.0686 ± 0.002 µM.

For CO[C@@H]1C[C@@H](C(=O)N[C@H](C#N)C[C@@H]2CCNC2=O)N(C(=O)[C@@H](NC(=O)OC(C)(C)C)C(C)(C)C)C1 [H138], which IC50 (SARS-CoV-2 M^pro) is on record?
Its IC50 is 2.96 µM.

Which IC50 (SARS-CoV-2 M^pro) does the source give for CC(C)(C)OC(=O)N[C@H](C(=O)N1C[C@H](Oc2ccccc2)C[C@H]1C(=O)N[C@H](C#N)C[C@@H]1CCNC1=O)C(C)(C)C [H140] here?
The IC50 was 6.77 µM.

For CN(C(=O)[C@@H](NC(=O)OC(C)(C)C)C(C)(C)C)[C@@H](Cc1ccccc1)C(=O)N[C@H](C#N)C[C@@H]1CCNC1=O [H119], which IC50 (SARS-CoV-2 M^pro; mean ± SEM) is on record?
Its IC50 is 0.625 ± 0.0105 µM.

What about the “decrease in enzyme inhibitory activity” value (SARS-CoV-2 M^pro; relative to H109) of the same compound?
Its value is 1.5 fold.

For N#C[C@H](C[C@@H]1CCNC1=O)NC(=O)[C@@H]1C[C@@H](OC(F)F)CN1C(=O)[C@@H](NC(=O)C1(F)CC1)C1CCCCC1 [H136], which IC50 (SARS-CoV-2 M^pro; mean ± SEM) is on record?
Its IC50 is 0.0434 ± 0.002 µM.

For CC(C)(C)[C@H](NC(=O)C(F)(F)F)C(=O)N1C[C@H]2[C@@H]([C@H]1C(=O)N[C@H](C#N)C[C@@H]1CCNC1=O)C2(C)C [PF-07321332, nirmatrelvir, reference compound], which “live virus titer in hamster lungs” value (SARS-CoV-2 [4]; […], H135 300 mg/kg IP QD, nirmatrelvir 300 mg/kg PO BID, three days, P < 0.001 vs DMSO) is on record?
Its value is “significantly reduced”.

And the “body weight of infected mice” value ([5]; 150 mg/kg daily intraperitoneal, […])?
The value was “body weight benefits”.

What about the “mice protected from death” value ([5]; mouse, in vivo) of the same compound?
The value was 40%.

— PMC12724327, “Structure-guided discovery of a small molecule inhibitor of SARS-CoV-2 main protease with potent in vitro and in vivo antiviral activities” (Journal of Virology, 2025)
